Laboratory results taken from the supplement of paper PMC13380429.

How the values were obtained:
Conditions in all cases: 72 h
[1] = system: Caco-2; assay: drug sensitivity score (DSS) for viability; higher = more toxic; extreme values may be limits of the assay
[2] = system: HepG2; assay: as above
[3] = system: Calu-3; assay: as above
[4] = system: Vero E6; assay: as above
[5] = system: U2OS; assay: as above
[6] = system: Caco-2; assay: cell viability relative to DMSO; higher = less toxic
[7] = system: HepG2; assay: as above
[8] = system: Calu-3; assay: as above
[9] = system: Vero E6; assay: as above
[10] = system: U2OS; assay: as above
[11] = system: Caco-2; assay: relative viability EC50 (midpoint between 100% and the lowest measured viability); higher = less toxic
[12] = system: HepG2; assay: as above
[13] = system: Calu-3; assay: as above
[14] = system: Vero E6; assay: as above
[15] = system: U2OS; assay: as above

| SMILES | drug sensitivity score [1] | drug sensitivity score [2] | drug sensitivity score [3] | drug sensitivity score [4] | drug sensitivity score [5] | cell viability ([6]; 1 nM) | cell viability ([6]; 10 nM) | cell viability ([6]; 100 nM) | cell viability ([6]; 1000 nM) | cell viability ([6]; 10000 nM) | cell viability ([7]; 1 nM) | cell viability ([7]; 10 nM) | cell viability ([7]; 100 nM) | cell viability ([7]; 1000 nM) | cell viability ([7]; 10000 nM) | cell viability ([8]; 1 nM) | cell viability ([8]; 10 nM) | cell viability ([8]; 100 nM) | cell viability ([8]; 1000 nM) | cell viability ([8]; 10000 nM) | cell viability ([9]; 1 nM) | cell viability ([9]; 10 nM) | cell viability ([9]; 100 nM) | cell viability ([9]; 1000 nM) | cell viability ([9]; 10000 nM) | cell viability ([10]; 1 nM) | cell viability ([10]; 10 nM) | cell viability ([10]; 100 nM) | cell viability ([10]; 1000 nM) | cell viability ([10]; 10000 nM) | relative viability EC50 [11] | relative viability EC50 [12] | relative viability EC50 [13] | relative viability EC50 [14] | relative viability EC50 [15] |
| --- | --- | --- | --- | --- | --- | --- | --- | --- | --- | --- | --- | --- | --- | --- | --- | --- | --- | --- | --- | --- | --- | --- | --- | --- | --- | --- | --- | --- | --- | --- | --- | --- | --- | --- | --- |
| CO[C@]12C[C@@H](COC(=O)c3cncc(Br)c3)CN(C)[C@@H]1Cc1cn(C)c3cccc2c13 [nicergoline] | 0 | 0 | 0 | 0 | 0 | 97.7% | 96% | 102% | 95% | 95.4% | 111% | 101% | 102% | 118% | 98.2% | 108% | 112% | 111% | 99.7% | 96.6% | 93.7% | 101% | 92.6% | 97.4% | 108% | 97.1% | 94.8% | 100% | 95.4% | 96.8% | > 10 µM | > 10 µM | > 10 µM | > 10 µM | > 10 µM |
| CCN(CC)Cc1nccn1-c1ccc([N+](=O)[O-])cc1C(=O)c1ccccc1Cl [nizofenone] | 0.3 | 0 | 0 | 0 | 0 | 124% | 92.8% | 81.8% | 108% | 81.1% | 100% | 96% | 98.4% | 95.7% | 95.5% | 93.3% | 105% | 98.8% | 105% | 99.5% | 102% | 100% | 104% | 102% | 92.9% | 105% | 102% | 97.1% | 102% | 98.7% | > 10 µM | > 10 µM | > 10 µM | > 10 µM | > 10 µM |
| Cc1c(Cl)c(C)[n+]([O-])c(Cl)c1-c1noc(-c2cc(O)c(O)c([N+](=O)[O-])c2)n1 [opicapone] | 0 | 0.4 | 0 | 0 | 0 | 87.3% | 99% | 93.8% | 111% | 95.4% | 108% | 103% | 110% | 88.1% | 97.9% | 84.3% | 106% | 95.3% | 102% | 105% | 97.3% | 96.6% | 96.3% | 98.6% | 95.8% | 100% | 104% | 94.4% | 102% | 104% | > 10 µM | > 10 µM | > 10 µM | > 10 µM | > 10 µM |
| CCCCCCCCCCC[C@@H](C[C@@H]1OC(=O)[C@H]1CCCCCC)OC(=O)[C@H](CC(C)C)NC=O [orlistat] | 0 | 0 | 0 | 0 | 0 | 111% | 98.5% | 99.9% | 99% | 94.9% | 104% | 106% | 108% | 96.7% | 100% | 103% | 97.4% | 110% | 102% | 103% | 96.2% | 98.2% | 89.9% | 82.8% | 102% | 96% | 97.2% | 92.6% | 105% | 105% | > 10 µM | > 10 µM | > 10 µM | > 10 µM | > 10 µM |
| CC(C)C[C@H](NC(=O)[C@H](CCCCN)NC(=O)[C@H](CCCNC(=N)N)NC(=O)[C@H](C)NC(=O)[C@H](CO)NC(=O)[C@H](CCCCN)NC(=O)[C@H](CCCNC(=N)N)NC(=O)[C@H](C)NC(=O)CNC(=O)[C@@H](NC(=O)[C@H](Cc1ccccc1)NC(=O)CNC(=O)CNC(=O)[C@@H](N)Cc1ccccc1)[C@@H](C)O)C(=O)N[C@@H](C)C(=O)N[C@@H](CC(N)=O)C(=O)N[C@@H](CCC(N)=O)C(=O)O [orphanin-fq] | 0 | 0 | 0 | 0 | 0 | 90.9% | 93.6% | 104% | 106% | 96.5% | 94.3% | 97.4% | 94.5% | 98.7% | 106% | 104% | 107% | 101% | 112% | 96.8% | 92.2% | 99.7% | 95.3% | 97.1% | 98.6% | 98.1% | 93.3% | 97.7% | 97.5% | 96.1% | > 10 µM | > 10 µM | > 10 µM | > 10 µM | > 10 µM |
| CCN(CC)CC1CCCCN1CC(=O)N1c2ccccc2C(=O)Nc2cccnc21 (stereo not given) [otenzepad] | 0 | 0 | 0 | 0 | 0 | 104% | 104% | 108% | 97.6% | 98.8% | 94.3% | 104% | 92.3% | 101% | 98.9% | 102% | 105% | 96% | 96.3% | 101% | 97.8% | 97% | 95.7% | 92.4% | 99.5% | 100% | 102% | 102% | 100% | 97.4% | > 10 µM | > 10 µM | > 10 µM | > 10 µM | > 10 µM |
| O=C1CCC[C@@H]2[C@H]3CCC[N+]4([O-])CCC[C@@H](CN12)[C@@H]34 (stereo not given in full) [oxymatrine] | 0 | 0 | 0 | 0 | 0 | 97.1% | 103% | 96.6% | 95.5% | 88.3% | 104% | 97.6% | 98.5% | 96.3% | 108% | 89% | 93.1% | 101% | 91.7% | 86.9% | 102% | 97.5% | 101% | 98.4% | 104% | 97.8% | 106% | 98% | 102% | 96.7% | > 10 µM | > 10 µM | > 10 µM | > 10 µM | > 10 µM |
| NC(=O)CC[C@H](NC(=O)Cc1ccccc1)C(=O)O [phenylacetylglutamine] | 0 | 0 | 0 | 0 | 0 | 91.4% | 101% | 82.2% | 96% | 92.9% | 93.9% | 94.4% | 96.2% | 90.9% | 98.5% | 90.6% | 102% | 94.9% | 95.8% | 98.3% | 104% | 94.6% | 103% | 100% | 105% | 97% | 101% | 97.8% | 92.2% | 97.5% | > 10 µM | > 10 µM | > 10 µM | > 10 µM | > 10 µM |
| O=S(=O)(O)c1ccc2[nH]c(-c3ccccc3)nc2c1 [phenylbenzimidazole-sulfonic-acid] | 0 | 0 | 0 | 0 | 0 | 98.9% | 95.8% | 90.3% | 93% | 96.8% | 85.6% | 93% | 93.2% | 94.3% | 99.2% | 111% | 112% | 106% | 105% | 89.2% | 96.3% | 89.7% | 97.3% | 96.7% | 107% | 97.9% | 96.7% | 103% | 99.3% | 99.4% | > 10 µM | > 10 µM | > 10 µM | > 10 µM | > 10 µM |
| CNC(=S)C1(c2ccccn2)CCCS1 (stereo not given) [picartamide] | 0 | 0 | 0 | 0 | 0 | 94.1% | 96.8% | 92.9% | 95.1% | 99.4% | 98.3% | 93.6% | 103% | 99.6% | 97.8% | 96.9% | 93% | 102% | 106% | 106% | 103% | 96.5% | 106% | 101% | 93.7% | 99.5% | 104% | 96.2% | 99.4% | 106% | > 10 µM | > 10 µM | > 10 µM | > 10 µM | > 10 µM |
| Cc1cccc(C)c1NC(=O)CC12CCCN1CCC2 [pilsicainide] | 0 | 0 | 0 | 0 | 0 | 104% | 83.8% | 95% | 94.7% | 91.9% | 86.5% | 102% | 90.2% | 99.4% | 91.1% | 106% | 94.6% | 87.8% | 102% | 94.7% | 102% | 98.7% | 99.9% | 100% | 100% | 96.3% | 92.8% | 99.4% | 94.7% | 102% | > 10 µM | > 10 µM | > 10 µM | > 10 µM | > 10 µM |
| CC(C)(C)C(=O)OCOC(=O)[C@@H]1N2C(=O)[C@@H](/N=C/N3CCCCCC3)[C@H]2SC1(C)C [pivmecillinam] | 0 | 0 | 0 | 0 | 0 | 88.8% | 92.9% | 93.3% | 90.7% | 97.2% | 94.7% | 92.7% | 96.1% | 95.5% | 91.9% | 90.9% | 93.1% | 97.9% | 94.9% | 112% | 106% | 102% | 96.6% | 104% | 92.8% | 102% | 99.8% | 103% | 98.9% | 104% | > 10 µM | > 10 µM | > 10 µM | > 10 µM | > 10 µM |
| CCC/N=C1\S/C(=C\c2ccc(OC[C@H](O)CO)c(Cl)c2)C(=O)N1c1ccccc1C [ponesimod] | 0.7 | 0 | 0 | 0 | 0 | 91.2% | 100% | 95.6% | 99% | 79.6% | 95.8% | 89.6% | 99.5% | 102% | 91.6% | 90.5% | 103% | 105% | 105% | 108% | 100% | 94% | 91.5% | 91.5% | 93.7% | 98.5% | 100% | 100% | 101% | 98.4% | > 10 µM | > 10 µM | > 10 µM | > 10 µM | > 10 µM |
